The test system of data set [1] is KRAS G12D mutant AGS cells. As to the kind of experiment: Proliferation inhibition of AGS cells, CellTiter-Glo assay. The data set is classed as cell-based, human. To be noted: Homo sapiens, AGS, 72 h, 3 days, CTG; read-out: AGS IC50/nM. The method, boiled down:
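AGS cells at 1500 cells/well in F12K + 10% FBS were exposed for 3 days at 37°C to nine 3-fold dilutions from 10 µM top concentration, in duplicate. Viability read by CellTiter-Glo luminescence; IC50 (nM) from dose-response-inhibition fitting.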

A further data set is described as follows: Pharmacokinetics in mice. To be noted: mouse, in vivo, po, 20 mg/kg.
For data set [2], the system named is KRAS G12V mutant NCI-H727 cells. The experiment in a line: Proliferation inhibition of NCI-H727 cells, 3D CellTiter-Glo assay (Method B). The data set is classed as cell-based, human. The following applies: Homo sapiens, NCI-H727, 120 h, Method B; 3D culture with 0.65% methylcellulose, 5 days, CTG; read-out: NCI-H727 IC50/nM. The method, boiled down: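 Cells grown in 3D medium (RPMI-1640, 10% FBS, 0.65% methylcellulose) overnight, then treated 5 days at 37 °C, 5% CO2 with 9 threefold dilutions from 10 µM top working concentration, duplicate wells. CellTiter-Glo luminescence read; IC50 (nM) fitted by dose-response-inhibition equation.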

The next data set concerns Ba/F3-KRAS-G13D. As to the kind of experiment: Ba/F3 KRAS-mutant cell proliferation inhibition (CellCounting-Lite 2.0). The data set is classed as cell-based. The following applies: Mus musculus, BaF3, Ba/F3-KRAS-G13D (KC-1436), 72 h. From the text:
(§1) This experiment evaluated the proliferation inhibitory activity of the compounds of the present invention against Ba/F3-KRAS mutant cell lines by using the CellCounting-Lite®2.0 method.
(§2) The following materials, reagents, and instruments were used in this experiment: Cells were all obtained from Kangyuan Bochuang Biotechnology (Beijing) Co., Ltd. RPMI-1640 (Hyclone, SH30809.01); fetal bovine serum (FBS) was used. (GIBCO, 10099-141); Phosphate-buffered saline (PBS) (Solarbio, P1020-500); CellCounting-Lite 2.0 Luminescent Cell Viability Assay (Vazyme, DD1101-02); 96-well plate (Absin, abs7016); Multifunctional microplate reader (BMG LABTECH, CLARIOstar® Plus); CO2 incubator (Thermo Scientific, Model 3100 Series).
(§3) All cell lines were cultured in complete medium at 37°C and 5% CO2. Cells in the logarithmic growth phase were harvested and counted using a platelet counter. Cell viability was assessed using the trypan blue exclusion method to ensure a viability of over 90%. Cell density was adjusted using complete medium (RPMI 1640+10% FBS) and then seeded into 96-well cell culture plates at 90 µL per well, for a total of 3000 cells. The cells in the 96-well plates were cultured at 37°C and 5% CO2. A 10-fold drug solution was prepared using complete medium, and then 10 µL of each serially diluted compound was transferred to the corresponding wells of the 96-well cell culture plate, with two replicates for each drug concentration. The cells in the drug-treated 96-well plates were cultured at 37°C and 5% CO2 for 72 h, followed by CellCounting-Lite 2.0 analysis.
(§4) The CellCounting-Lite 2.0 Luminescent Cell Viability Assay reagent was thawed and the cell plate was equilibrated to room temperature for 30 minutes. An equal volume of CellCounting-Lite 2.0 Luminescent Cell Viability Assay solution was added to each well and the plate was shaken on an orbital shaker for 5 minutes to lyse the cells. The cell plate was placed at room temperature for 20 minutes to stabilize the cryo-luminescence signal. The cryo-luminescence values were read and the data were collected.
(§5) Data was analyzed using GraphPad Prism 7.0 software. A nonlinear S-curve regression was used to fit the data to derive the dose-response curve, and the IC50 value was calculated from this curve. [formula]

The subject of a further data set is Ba/F3-KRAS-G12C-A59S. Described as above. The data set is classed as cell-based. The following applies: Mus musculus, BaF3, Ba/F3-KRAS-G12C-A59S (KC-2605), 72 h.
Excerpt: as §1, §2, §3, §4, §5

[3] abbreviates: 0.05uM, read-out: Inhibition rate% @0.05uM.
[4] abbreviates: 1uM, read-out: Inhibition rate% @1uM.

The AUC(0-t) is exposure summed from dosing to a finite time, without extrapolation to infinity. Higher therefore signals high exposure. In general, inhibition refers to the drop in the measured response relative to a control, in per cent. In the case of `CCN1CC/C(=C\F)[C@](C)(COc2nc(N3Cc4c(COC)c(C(=O)N(C)C)nn4CC[C@@H]3C)c3cc(Cl)c(-c4c(F)ccc5sc(N)c(C#N)c45)c(F)c3n2)C1` (single isomer, unassigned) [Example 228A], the IC50 in data set [1] and in data set [2] was below 1.5 nM each time. Besides, the AUC(0-t) at 8 h in the data set “Pharmacokinetics in mice” was determined as 4130 ng·h/mL. Further, the inhibition at 0.05 µM came out at 88.1% in the data set with Ba/F3-KRAS-G13D (setting [3]) and 83.3% with Ba/F3-KRAS-G12C-A59S (setting [3]). The inhibition at 1 µM in the data set on Ba/F3-KRAS-G13D (setting [4]) is 98.2%; in the data set on Ba/F3-KRAS-G12C-A59S (setting [4]), 97.4%.

(Values after EP4775577A1, “RAS INHIBITOR” (Tyligand Bioscience (Shanghai) Limited, priority 2023, dated 2025).)
